For the assay, the target named is T1, cPLA2 (Homo sapiens, UniProt P47712).
T1 sequence (P47712 1-749): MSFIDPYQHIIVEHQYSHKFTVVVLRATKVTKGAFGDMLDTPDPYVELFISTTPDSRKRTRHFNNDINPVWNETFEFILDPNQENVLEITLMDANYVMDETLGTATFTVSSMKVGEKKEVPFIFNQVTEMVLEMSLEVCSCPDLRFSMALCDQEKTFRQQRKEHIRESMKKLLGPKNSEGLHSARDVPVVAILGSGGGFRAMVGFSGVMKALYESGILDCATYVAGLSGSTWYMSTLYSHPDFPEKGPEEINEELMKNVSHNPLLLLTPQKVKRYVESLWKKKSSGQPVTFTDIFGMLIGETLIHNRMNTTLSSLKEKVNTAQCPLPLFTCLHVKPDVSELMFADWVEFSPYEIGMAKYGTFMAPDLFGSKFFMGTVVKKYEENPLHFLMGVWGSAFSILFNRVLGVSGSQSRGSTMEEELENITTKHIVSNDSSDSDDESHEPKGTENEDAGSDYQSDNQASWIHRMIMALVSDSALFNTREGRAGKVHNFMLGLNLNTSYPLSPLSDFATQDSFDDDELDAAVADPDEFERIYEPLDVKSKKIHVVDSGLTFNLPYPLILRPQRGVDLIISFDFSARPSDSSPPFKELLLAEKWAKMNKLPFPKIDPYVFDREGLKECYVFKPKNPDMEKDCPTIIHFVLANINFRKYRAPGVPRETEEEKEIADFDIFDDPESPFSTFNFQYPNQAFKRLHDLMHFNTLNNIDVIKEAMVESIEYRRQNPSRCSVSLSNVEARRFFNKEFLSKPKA
Kind of assay: Coumarine assay (hydrolysis of 7-hydroxycoumarinyl 6-heptenoate). In kind it is biochemical. Conditions: 60 μM 7-hydroxycoumarinyl 6-heptenoate, pH 7.5; read-out: Coumarin IC50.

By IC50 is commonly meant the concentration that inhibits the measured activity by half.

Procedure: Inhibitors were mixed with 200 μL assay buffer (80 mM Heped, pH 7.5, 1 mM EDTA) containing 60 μM 7-hydroxycoumarinyl 6-heptenoate. The reaction was initiated by adding 4 μg cPLA2 in 50 μL assay buffer. Hydrolysis of the 7-hydroxycounarimyl 6-heptenoate ester was monitored in a fluorometer by exciting at 360 nm and monitoring emission at 460 nm. Enzyme activity is proportional to the increase in emission at 460 nm per minute. In the presence of a cPLA2 inhibitor, the rate of increase is less.

As to `O=C(O)c1ccc(CCCc2c(CCNS(=O)(=O)c3ccsc3)n(C(c3ccccc3)c3ccccc3)c3ccc(Cl)cc23)cc1` [Example 180, 4-[3-(1-benzhydryl-5-chloro-2-{2-[(thien-3-ylsulfonyl)amino]ethyl}-1H-indol-3-yl)propyl]benzoic acid], the half-inhibitory concentration (IC50) came out at 0.23 µM.

Regarding `Cc1nc(S(=O)(=O)NCCc2c(CCCc3ccc(C(=O)O)cc3)c3cc(Cl)ccc3n2C(c2ccccc2)c2ccccc2)cn1C` [Example 257, 4-{3-[1-benzhydryl-5-chloro-2-(2-{[(1,2-dimethyl-1H-imidazol-4-yl)sulfonyl]amino}ethyl)-1H-indol-3-yl]propyl}benzoic acid], the half-inhibitory concentration (IC50) stood at 0.5 µM.

Consider `O=C(O)c1cccc(OCCc2c(CCNS(=O)(=O)Cc3ccccc3)n(C(c3ccccc3)c3ccccc3)c3ccc(Cl)cc23)c1` [Example 283], for which the IC50 was found to be 0.5 µM.

Turning to `COC[C@@H]1CCCN1CCS(=O)(=O)NCCc1c(CCOc2ccc(C(=O)O)cc2)c2cc(Cl)ccc2n1C(c1ccccc1)c1ccccc1` [Example 248, 4-[2-(1-benzhydryl-5-chloro-2-{2-[({2-[(2S)-2-(methoxymethyl)pyrrolidin-1-yl]ethyl}sulfonyl)amino]ethyl}-1H-indol-3-yl)ethoxy]benzoic acid], the IC50 is 1.2 µM.

In the case of “4-(3-{2-[2-({[2-(aminomethyl)phenyl]sulfonyl}amino)ethyl]-1-benzhydryl-5-chloro-1H-indol-3-yl}propyl)benzoic acid [Example 156]”, the IC50 worked out at 0.16 µM.

In the case of `CCc1cccc(CC)c1S(=O)(=O)NCCc1c(CCOc2ccc(C(=O)O)cc2)c2cc(Cl)ccc2n1C(c1ccccc1)c1ccccc1` [Example 272, 4-{2-[1-benzhydryl-5-chloro-2-(2-{[(2,6-diethylphenyl)sulfonyl]amino}ethyl)-1H-indol-3-yl]ethoxy}benzoic acid], the half-maximal inhibitory concentration (IC50) is 0.1 µM.

`O=C(O)CCc1ccc(S(=O)(=O)CCc2c(CCNS(=O)(=O)Cc3ccccc3)n(C(c3ccccc3)c3ccccc3)c3ccc(Cl)cc23)cc1` [Example 130, 3-(4-{[2-(1-Benzhydryl-2-{2-[(benzylsulfonyl)amino]ethyl}-5-chloro-1H-indol-3-yl)ethyl]sulfonyl}phenyl)propanoic acid]: the IC50 came to 0.17 µM.

Take `O=C(O)c1ccc(OCCc2c(CCNS(=O)(=O)c3ccsc3)n(C(c3ccccc3)c3ccccc3)c3ccc(Cl)cc23)cc1` [Example 178, 4-[2-(1-benzhydryl-5-chloro-2-{2-[(thien-3-ylsulfonyl)amino]ethyl}-1H-indol-3-yl)ethoxy]benzoic acid]: the concentration for half-maximal inhibition (IC50) came out at 0.65 µM.

With `O=C(O)c1ccc(OCCc2c(CCNS(=O)(=O)CSc3ccc(Cl)c(Cl)c3)n(C(c3ccccc3)c3ccccc3)c3ccc(Cl)cc23)cc1` [Example 220, 4-[2-(1-benzhydryl-5-chloro-2-{2-[({[(3,4-dichlorophenyl)thio]methyl}sulfonyl)amino]ethyl}-1H-indol-3-yl)ethoxy]benzoic acid], the half-maximal inhibitory concentration (IC50) came out at 0.4 µM.

Regarding `COc1ccc(S(=O)(=O)NCCc2c(CCCc3ccc(C(=O)O)cc3)c3cc(Cl)ccc3n2C(c2ccccc2)c2ccccc2)c2nonc12` [Example 173, 4-{3-[1-benzhydryl-5-chloro-2-(2-{[(7-methoxy-2,1,3-benzoxadiazol-4-yl)sulfonyl]amino}ethyl)-1H-indol-3-yl]propyl}benzoic acid], the IC50 was found to be 0.4 µM.

Regarding `O=C(O)c1ccc(CCCc2c(CCNS(=O)(=O)c3c(F)cccc3F)n(C(c3ccccc3)c3ccccc3)c3ccc(Cl)cc23)cc1` [Example 224], the IC50 is 0.25 µM.

As for `O=C(O)c1ccc(CCCc2c(CCNS(=O)(=O)c3ccccc3Cl)n(C(c3ccccc3)c3ccccc3)c3ccccc23)cc1` [Example 295, 4-{3-[1-benzhydryl-2-(2-{[(2-chlorophenyl)sulfonyl]amino}ethyl)-1H-indol-3-yl]propyl}benzoic acid], the IC50 was found to be 0.55 µM.

Turning to `CSc1ccccc1S(=O)(=O)NCCc1c(CCOc2ccc(C(=O)O)cc2)c2cc(Cl)ccc2n1C(c1ccccc1)c1ccccc1` [Example 239, 4-(2-{1-benzhydryl-5-chloro-2-[2-({[2-(methylthio)phenyl]sulfonyl}amino)ethyl]-1H-indol-3-yl}ethoxy)benzoic acid], the IC50 turned out to be 0.48 µM.

Take `O=C(O)c1ccc(CCCc2c(CCNS(=O)(=O)c3ccc(C(F)(F)F)cc3)n(C(c3ccccc3)c3ccccc3)c3ccc(Cl)cc23)cc1` [Example 228]: the concentration for half-maximal inhibition (IC50) stood at 0.4 µM.

`O=C(O)CCc1ccc(S(=O)(=O)CCc2c(CCNS(=O)(=O)c3ccccc3Cl)n(C(c3ccccc3)c3ccccc3)c3ccc(Cl)cc23)cc1` [Example 259, 3-[4-({2-[1-benzhydryl-5-chloro-2-(2-{[(2-chlorophenyl)sulfonyl]amino}ethyl)-1H-indol-3-yl]ethyl}sulfonyl)phenyl]propanoic acid]: the IC50 stood at 0.2 µM.

For the compound `O=C(O)c1ccc(OCCc2c(CCNS(=O)(=O)c3c(F)cccc3C(F)(F)F)n(C(c3ccccc3)c3ccccc3)c3ccc(Cl)cc23)cc1` [Example 269], the IC50 was found to be 0.15 µM.

Regarding `O=C(O)c1ccc(OCCc2c(CCNS(=O)(=O)c3cccc(OC(F)(F)F)c3)n(C(c3ccccc3)c3ccccc3)c3ccc(Cl)cc23)cc1` [Example 198, 4-(2-{1-Benzhydryl-5-chloro-2-[2-(3-trifluoromethoxy-benzenesulfonylamino)-ethyl]-1H-indol-3-yl}-ethoxy)-benzoic acid], the IC50 turned out to be 0.7 µM.

In the case of `CS(=O)(=O)c1ccccc1S(=O)(=O)NCCc1c(CCOc2ccc(C(=O)O)cc2)c2cc(Cl)ccc2n1C(c1ccccc1)c1ccccc1` [Example 205], the IC50 came to 0.37 µM.

Take `Cc1cccc(Cl)c1S(=O)(=O)NCCc1c(CCCc2ccc(C(=O)O)cc2)c2cc(Cl)ccc2n1C(c1ccccc1)c1ccccc1` [Example 226]: the concentration for half-maximal inhibition (IC50) was found to be 0.14 µM.

As to `COc1ccc(S(=O)(=O)NCCc2c(CCCc3ccc(C(=O)O)cc3)c3cc(Cl)ccc3n2C(c2ccccc2)c2ccccc2)c([N+](=O)[O-])c1` [Example 200, 4-(3-{1-Benzhydryl-5-chloro-2-[2-(4-methoxy-2-nitro-benzenesulfonylamino)-ethyl]-1H-indol-3-yl}-propyl)-benzoic acid], the IC50 was 0.35 µM.

For the compound `O=C(O)c1ccc(OCCc2c(CCNS(=O)(=O)c3ccccc3Cl)n(C(c3ccccc3)c3ccccc3)c3ccc(Cl)cc23)cc1` [Example 255, 4-{2-[1-benzhydryl-5-chloro-2-(2{[(2-chlorophenyl)sulfonyl]amino}ethyl)-1H-indol-3-yl]ethoxy}benzoic acid], the IC50 was 0.5 µM.

Consider “4-(2-{1-benzhydryl-5-chloro-2-[2-({[(5,6-dichloropyridine-2-yl)methyl]sulfonyl}amino)ethyl]-1H-indol-3-yl}ethoxy)benzoic acid [Example 76]”, for which the 50% inhibitory concentration (IC50) came out at 0.4 µM.

Consider `O=C(O)c1ccc(OCCc2c(CCNS(=O)(=O)c3cc(F)c(Cl)cc3F)n(C(c3ccccc3)c3ccccc3)c3ccc(Cl)cc23)cc1` [Example 170, 4-{2-[1-benzhydryl-5-chloro-2-(2-{[(4-chloro-2,5-difluorophenyl)sulfonyl]amino}ethyl)-1H-indol-3-yl]ethoxy}benzoic acid], for which the half-inhibitory concentration (IC50) was 0.95 µM.

Regarding `Cc1c(S(=O)(=O)NCCc2c(CCOc3ccc(C(=O)O)cc3)c3cc(Cl)ccc3n2C(c2ccccc2)c2ccccc2)cnn1-c1ccccc1` [Example 211, 4-{2-[1-benzhydryl-5-chloro-2-(2-{[(5-methyl-1-phenyl-1H-pyrazol-4-yl)sulfonyl]amino}ethyl)-1H-indol-3-yl]ethoxy}benzoic acid], the IC50 was 0.4 µM.

Values taken from patent US7605156B2, “Methods for the use of inhibitors of cytosolic phospholipase A2” (Wyeth, priority 2001, dated 2009).
